Laboratory results as given in US5220001A, “Anthracycline glycoside derivatives” (Zaidan Hojim Biseibutsu Dong-A Pharm Co., priority 1989, dated 1993).
Structures can show the parent of a compound that is named as a salt. Where two headings read alike, the source gives them in different places.

Key:
[1] = system: L1210 murine leukemia; assay: In vivo antitumor activity on DCF1 mice bearing L1210 murine leukemia; details: for T/C (%): i.p. days 1, 5, 9, mean survival time vs control, 60-day observation
Procedure: The in vivo antitumor activity of the compounds of present invention was studied on DCF1 mice bearing L1210 murine leukemia. Healthy female DCF1 mice were inoculated by intraperitoneal injection with 1×10^5 L1210 leukemia cells per animal. The inoculated mice were then treated intraperitoneally on the days 1, 5, 9 beginning on day 1, 24 hours after inoculation of the leukemia cells with various doses of test compounds. Doxorubicin hydrochloride was administered for comparison. All test compounds and doxorubicin hydrochloride were dissolved in filtered (0.22 μm) distilled water. […] The results are shown in Table 1 where T/C(%) values are determined by dividing the mean survival time of the treated mice by that of the control mice, the quotient so obtained being multiplied by 100. The survival time of the mice which survived more than 60 days after tumor inoculation was scored as 60 days. An increase on the T/C(%) indicates an increase in the antitumor activity of the compound.

[2] = system: L1210 murine leukemia cells; assay: In vitro growth inhibition activity on L1210 murine leukemia cells (tetrazolium-based MTT colorimetric assay); assay type: cell-based; details: Mus musculus
Procedure: In vitro growth inhibition activity of the compounds of present invention on L1210 murine leukemia cells was assessed by tetrazolium-based colorimetric assay described in Cancer Research Vol. 47, pp. 936-942, February 1987 with some modifications.
L1210 murine leukemia cells in exponential phase were plated at the density of 1×10^5 cells per well in 96-well microliter plates. The cell culture medium was RPMI 1640 (Roswell Park Memorial Institutes 1640) medium supplemented with 10% heat inactivated fetal bovine serum (FBS), 2mM L-glutamine, penicillin G sodium (100 units per ml of medium), and steptomycin sulfate (1 mg per ml of medium). The anthracycline compounds of present invention and doxorubicin hydrochloride were added to give final concentrations from 1 ng per ml to 300 ng per ml, while the control contained no drug.
The cells were incubated for 72 hours at 37.C. in an atmosphere of 10% CO2 and 90% air. At the end of drug exposure, 50 μl MTT(3-(4,5-dimethylthiazol-2-yl)-2,5-diphenyltetrazolium bromide) solution (2 mg per ml in phosphate-buffered saline) was added to each well and cultures were incubated at 37° C. for 4 hours in Co2 incubator. The MTT is reduced to water insoluble MTT formazan(1-(4,5-dimethylthiazol-2-yl)-3,5-diphenylformazan) by mitochondrial succinate dehydrogenase only in living cells. At the end of incubation, 200 μl of supernatant was removed and the MTT formazan crystal was dissolved by adding 200 μl dimethylsulfoxide with mixing them.
The plates were then read immediately at 540 nm on a scanning multiwell spectrophotometer (enzyme-linked immunosorbent assay reader; Biotech Instruments Inc., Burlington, VT). The absorbance value corrected against uninoculated blank values. The absorbance values are directly proportional to the cell numbers in living state. The IC 50 defined a 50% reduction of absorbance against untreated control were calculated from dose-response curve and are shown in Table 2.

[3] = L1210 cells, 72 hours, MTT, 50% reduction of absorbance against untreated control, read-out: IC50

Structure (SMILES) | toxicity (decrease in T/C(%) at high dose) ([1]; 16 mg/kg compared with 8 mg/kg) | T/C (%) ([1]; dose 0.125 mg/kg) | T/C (%) ([1]; dose 0.250 mg/kg) | T/C (%) ([1]; dose 0.500 mg/kg) | T/C (%) ([1]; dose 1.000 mg/kg) | T/C (%) ([1]; dose 2.000 mg/kg) | T/C (%) ([1]; dose 4.000 mg/kg) | T/C (%) ([1]; dose 8.000 mg/kg) | T/C (%) ([1]; dose 16.000 mg/kg) | IC50 ([2]; L1210, 72 h) | cure of tumored mice ([1]; at 32 mg/kg, 16 mg/kg and 8 mg/kg i.p.) | T/C (%) ([1]; dose 32.000 mg/kg) | IC50 [2, 3]
COc1cccc2c1C(=O)c1c(O)c3c(c(O)c1C2=O)C[C@@](O)(C(=O)CO)C[C@@H]3O[C@H]1C[C@H](N)[C@H](O)[C@H](C)O1 [Doxorubicin hydrochloride, reference compound] | significant decrease in T/C(%) | 141% | 170% | 218% | 242% | 242% | 469% | 303% | 109% | 0.0373 µg/mL | – | – | –
COc1cccc2c1C(=O)c1c(O)c3c(c(O)c1C2=O)CC(O)(C(=O)COC(=O)CN)CC3OC1OC(C)C(O)C(O)C1F [Example 3, 7-0-(2,6-dideoxy-2-fluoro-α-L-talopyranosyl)adriamycinone 14-0-glycinate HCl salt] | – | 186% | 238% | 328% | 230% | 255% | 279% | 727% | 727% | – | cured all tumored mice | 727% | 0.0134 µg/mL
COc1cccc2c1C(=O)c1c(O)c3c(c(O)c1C2=O)CC(O)(C(=O)COC(=O)CCN)CC3OC1OC(C)C(O)C(O)C1F [Example 5, 7-0-(2,6-dideoxy-2-fluoro-α-L-talopyranosyl)adriamycinone 14-0-β-alaninate HCl salt] | – | 140% | 162% | 189% | 248% | 361% | 333% | 500% | 636% | – | – | 542% | 0.0101 µg/mL
COc1cccc2c1C(=O)c1c(O)c3c(c(O)c1C2=O)CC(O)(C(=O)COC(=O)CCCCCN)CC3OC1OC(C)C(O)C(O)C1F [Example 7, 7-0-(2,6-dideoxy-2 fluoro-α-L-talopyranosyl)adriamycinone 14-0-(6-aminohexanoate) HCl salt] | – | 111% | 122% | 168% | 242% | 329% | 348% | 367% | 441% | 0.0745 µg/mL | – | 663% | –
COc1cccc2c1C(=O)c1c(O)c3c(c(O)c1C2=O)CC(O)(C(=O)COC(=O)C(C)N)CC3OC1OC(C)C(O)C(O)C1F [Example 9, 7-0-(2,6-dideoxy-2-fluoro-α-L-talopyranosyl)adriamycinone 14-0-L-alaninate HCl salt] | – | 171% | 190% | 244% | 287% | 356% | 468% | 488% | 660% | – | – | 727% | 0.0143 µg/mL
COc1cccc2c1C(=O)c1c(O)c3c(c(O)c1C2=O)CC(O)(C(=O)COC(=O)C(N)C(C)C)CC3OC1OC(C)C(O)C(O)C1F [Example 11, 7-0-(2,6-dideoxy-2-fluoro-α-L-talopyranosyl)adriamycinone 14-0-L-valinate HCl salt] | – | 150% | 168% | 226% | 298% | 492% | 559% | 586% | 727% | – | – | 252% | 0.0155 µg/mL
COc1cccc2c1C(=O)c1c(O)c3c(c(O)c1C2=O)CC(O)(C(=O)COC(=O)C1CCCN1)CC3OC1OC(C)C(O)C(O)C1F [Example 13, 7-0-(2,6-dideoxy-2-fluoro-α-L-talopyranosyl)adriamycinone 14-0-L-prolinate HCl salt] | – | 140% | 159% | 213% | 313% | 367% | 283% | 427% | 635% | – | – | 525% | 0.0163 µg/mL
